Experimental data as given in PubChem BioAssay (NCI).
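Protocol summary: plate cells (96-well), add compound at 5 concentrations, incubate 48 h, interpolate endpoints linearly. GI50: concentration for 50% inhibition of growth. The concentration for full growth arrest is given as TGI.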

Experiments:
Assay in all cases: growth of human tumour cells (NCI), 48 h
K-562 leukemia = tested on: K-562 leukemia
786-0 renal = tested on: 786-0 renal
DLD-1 colon = tested on: DLD-1 colon
SNB-19 CNS = tested on: SNB-19 CNS
SK-OV-3 ovarian = tested on: SK-OV-3 ovarian
OVCAR-3 ovarian = tested on: OVCAR-3 ovarian
HOP-18 NSCLC = tested on: HOP-18 NSCLC
KM20L2 colon = tested on: KM20L2 colon
SNB-78 CNS = tested on: SNB-78 CNS
SR leukemia = tested on: SR leukemia
MDA-N = tested on: MDA-N
MDA-MB-435 = tested on: MDA-MB-435
DU-145 prostate = tested on: DU-145 prostate
XF 498 CNS = tested on: XF 498 CNS

Row | Structure (SMILES) | TGI (K-562 leukemia) [µM] | TGI (786-0 renal) [µM] | TGI (DLD-1 colon) [µM] | TGI (SNB-19 CNS) [µM] | TGI (SK-OV-3 ovarian) [µM] | TGI (OVCAR-3 ovarian) [µM] | TGI (HOP-18 NSCLC) [µM] | TGI (KM20L2 colon) [µM] | TGI (SNB-78 CNS) [µM] | TGI (SR leukemia) [µM] | TGI (MDA-N) [µM] | TGI (MDA-MB-435) [µM] | TGI (DU-145 prostate) [µM] | TGI (XF 498 CNS) [µM] | GI50 (K-562 leukemia) [µM] | GI50 (SR leukemia) [µM] | GI50 (MDA-MB-435) [µM] | GI50 (SNB-19 CNS) [µM] | GI50 (SK-OV-3 ovarian) [µM] | GI50 (DU-145 prostate) [µM]
1 | O=C(O)C1=NNC(C(=O)O)=NN1 | > 100 | > 100 | > 100 | > 100 | > 100 | > 100 | > 100 | > 100 | > 100 | – | – | – | – | – | – | – | – | – | – | –
2 | CC(CO)(CO)Nc1ncnc2ccccc12 | > 100 | > 100 | – | > 100 | – | > 100 | – | – | – | > 100 | > 100 | > 100 | > 100 | – | – | – | – | – | – | –
3 | COc1cc(C)c2c(=O)c3c(oc2c1)C(=O)c1c(O)c(OC)cc(O)c1C3=O | 4.39 | – | 10.1 | 7.89 | 3.98 | 2.4 | 3.9 | 19.9 | 7.2 | – | – | – | – | 2.29 | – | – | – | – | – | –
4 | c1ccc2sc(SCN(C3CCCCC3)C3CCCCC3)nc2c1 | > 100 | – | – | > 100 | – | > 100 | – | – | – | > 100 | – | > 100 | > 100 | – | – | – | – | – | – | –
5 | COc1cc2c(cc1Oc1ccc(OC)c3c1CC1c4c(cc(OC)c(OC)c4-3)CCN1C)CC1c3c(cc(OC)c(OC)c3-2)CCN1C (centres undefined) | 3.92 | – | 9.17 | 14.5 | 31.9 | 14.9 | 23.8 | 3.59 | 20.2 | – | – | – | – | 4.29 | – | – | – | – | – | –
6 | O=c1cc(O)c2ccccc2o1 | > 100 | > 100 | – | > 100 | – | > 100 | – | – | – | > 100 | > 100 | > 100 | > 100 | – | – | – | – | – | – | –
7 | Fc1ccc(-c2nnc3sc(COc4ccccc4Cl)nn23)cc1Cl | 67.6 | – | – | > 100 | > 100 | – | – | – | – | 76.4 | – | > 100 | > 100 | – | 24.6 | 23.3 | 49.5 | 39.9 | 93.3 | 29.8
8 | COc1c(Cl)cc(S(=O)O)cc1Cl | > 100 | – | > 100 | > 100 | > 100 | > 100 | – | – | > 100 | – | – | – | – | > 100 | – | – | – | – | – | –
9 | Cn1c(Sc2ccc(-c3cccnc3)n2C)ccc1-c1cccnc1 | 13.8 | 43.5 | – | 42.3 | 60.9 | 27.3 | – | – | – | 9.79 | 25.3 | 29.1 | 33.5 | – | – | – | – | – | – | –
10 | Nc1nnc(N)n1NC(=O)C(=O)Nc1ccc([N+](=O)[O-])cc1 | > 100 | – | > 100 | > 100 | > 100 | – | > 100 | > 100 | > 100 | > 100 | – | – | – | > 100 | – | – | – | – | – | –
11 | CCOC(=O)NC | > 100 | > 100 | – | > 100 | > 100 | > 100 | – | – | – | > 100 | > 100 | > 100 | > 100 | – | – | – | – | – | – | –
12 | NC(=O)Nc1cc(O)ccc1N=Nc1ccc(S(=O)(=O)Nc2ccccn2)cc1 | > 100 | – | – | > 100 | > 100 | > 100 | > 100 | > 100 | > 100 | – | – | – | – | > 100 | – | – | – | – | – | –
13 | CC1(O)CC23CC1CCC2(C)C12CCCC(C)(C(=O)O1)C2CC3O (centres undefined) | > 100 | > 100 | – | > 100 | > 100 | – | – | – | – | > 100 | > 100 | > 100 | > 100 | – | – | – | – | – | – | –
14 | Cc1cc(=O)oc2c1cc(OCC(=O)OCCN1CCCCC1)c1occ(C)c12 | > 100 | > 100 | > 100 | > 100 | – | > 100 | > 100 | > 100 | > 100 | – | – | – | – | > 100 | – | – | – | – | – | –
15 | CC(C)=CCC[C@](C)(O[C@@H]1O[C@H](CO)[C@@H](O)[C@H](O)[C@H]1O)[C@H]1CC[C@]2(C)[C@@H]1[C@H](O)C[C@@H]1[C@@]3(C)CC[C@H](O)C(C)(C)[C@@H]3[C@@H](O[C@@H]3O[C@H](CO)[C@@H](O)[C@H](O)[C@H]3O)C[C@]12C | > 100 | > 100 | – | > 100 | > 100 | > 100 | – | – | – | > 100 | > 100 | > 100 | > 100 | – | – | – | – | – | – | –
